Laboratory results from US8153687B2, “Gallium complexes with polyalcohols and methods of use” (priority 2009, dated 2012).

System: Pseudomonas aeruginosa
Assay: Topical treatment of a recalcitrant Pseudomonas aeruginosa infected diabetic foot ulcer (case)
Assay type: in vivo
Conditions: severe diabetic foot ulcer with biofilm formation

Compound	response of the infection to treatment (topical treatment)	response of the infection to treatment (oral treatment)
Oc1cc(Cl)ccc1Oc1ccc(Cl)cc1Cl [triclosan]	does not respond	–
O=C(O)c1cn(C2CC2)c2cc(N3CCNCC3)c(F)cc2c1=O [ciprofloxacin]	does not respond	does not respond
gentamicin	does not respond	–
